From US7939541B2, “Intermediates and a process employing the intermediates for the preparation of (3-trifluoromethylsulfonyl)-N-[4-methyl-3-(4-pyridin-3yl-pyrimidin-2ylamino)-phenyl]-benzamide” (Natco Pharma Limited, priority 2004, dated 2011)

Columns and labels:
[1] = test system: 4910 human glioma xenograft cells; test: Glioma radiation studies, intracranial tumours; assay type: in vivo, nude mice
Protocol: Nude mice were intracranially implanted with 4910 human glioma xenograft cells (1×10^6 cells) intracranially. Ten days after implantation mice were treated with AN019, AN024 or temozolomide with or without radiation (5 Gy/week). The experiment was terminated at day 40 post implantation.

[2] = test system: MDAMB231 breast cancer cells; test: In vitro angiogenic assay, MDA-MB-231 conditioned media on human dermal endothelial cells; assay type: cell-based; settings: MDA-MB-231 cells, with radiation
Protocol: (§1) The in vitro angiogenesis of 4910, 5310 and U87 glioma cells and MDAMB231 and ZR71 breast cancer cells in the presence of specified concentrations of compounds were determined as follows, cells (2×10^4/well) were seeded in 8-well chamber slides and were treated with various concentrations of test compounds. After a 24 h incubation period, the conditioned media was removed and added to a 4×10^4 human dermal endothelial cell (monolayer in 8-well chamber slides) and the human dermal endothelial cells were allowed to grow for 72 h. Cells were then fixed in 3.7% formaldehyde and stained with H&E and photographed.

[3] = test system: U87 glioma cells; test: In vitro angiogenic assay, U87 conditioned media on human dermal endothelial cells; assay type: cell-based; settings: with radiation
Protocol: as §1

[4] = test system: AKT, ERK and Pi3k in 4910 glioma cells; test: Western blot analysis, 4910; assay type: cell-based, human; settings: 24 h
Protocol: (§2) Western blot analysis of 4910, 5310 and U87 glioma cells and MDAMB231 and ZR71 breast cancer cells in the presence of specified concentrations of compounds were assessed as per standard protocols. Cells were treated with AN019, AN024 or Temozolomide at the specified concentrations. 24 h after treatment, cells were collected and cell lysates extracted. Equal quantities of proteins were fractionated by SDS-PAGE. The fractionated proteins were blotted on to nylon membranes and immunoprobed for AKT, ERK and Pi3k. Breast cancer cell protein isolates were additionally immunoprobed for EGFR, ErbB1, ErbB2 and ErbB3.

[5] = in vivo; settings: mouse
[6] = test system: K562 luc human leukemia cells; test: Luciferase expression in nude mice implanted with K562 luc cells, low dose oral administration; assay type: in vivo
Source text: Five mice were used per group and divided into 24 groups+2 control. All groups were implanted with K562 normal/luc cells. Of the 24 groups, 12 were used for luciferase studies whereas the other 12 were used for blood smear count studies.

[7] = test system: BCR-Abl, Crk and phospho Stat5AY^694/699 in K562 cells; test: Western blot analysis of K562 cells treated with AN024; assay type: cell-based, human
Protocol: Expression levels of BCR-Abl, Crk and phospho Stat5AY^694/699 were determined by western blot analysis in K562 cells treated with various concentrations of AN024 (1, 2.5, 5 or 10 μg/ml) for 12 h.
K562 cells were treated with 1, 2.5, 5, or 10 μg/ml of AN024. After 12 h, cells were collected and total cell lysates were prepared in extraction buffer containing Tris [0.1 M, pH 7.5], Triton-X114 (1.0%), EDTA (10 mM), aprotinin, and phenylmethylsulphonyl fluoride. […] The membranes were probed for 2 h with antibodies against BCR-Abl, Crk and phospho Stat5AY^694/699 per standard protocols. The membranes were subsequently washed three times with PBS to remove excess primary antibodies, incubated with appropriate HRP conjugated secondary antibodies as required, and then developed according to enhanced chemiluminesence protocol (Amersham, Arlington Heights, Ill.).
FIG. 1 illustrates results of this testing. K562 cells were treated with various concentrations of AN024 (1-10 μg/ml). Cell lysates were collected and western blot analysis was performed per standard protocols. Expression levels of BCR-Abl, Crk and Stat5AY^694/699 were determined.

[8] = test system: Baf3 murine leukemia cells T315I; test: Blast cell count in nude mice implanted with Baf3 T315I cells; assay type: in vivo; settings: Baf3T315I; Imatinib 10 mg/kg, AN019 20 mg/kg, AN024 20 mg/kg, oral gavage or ip from day 15; day 42
Source text: (§3) Blood smears were obtained via the tail vein or via the femoral vein every 6th day and blast cells counted and graphically represented.
(§4) Abdominal swelling and decrease in activity was monitored daily, blood smear taken via the tail vein or the femoral vein every 6th day and H&E stained as per standard protocols. 42 days after implantation, mice were sacrificed and spleens harvested.
(§5) Blood from tail vein or the femoral vein was taken every 6th day from Baf3 cell implanted mice until day 42.
(§6) Nude mice were intraperitoneally implanted with Baf3 mutant cells (wt, T315I, M351T or E255K). […] Blood was drawn from the femoral vein or tail vein every 6th day and blast cell count determined and graphically represented.

[9] = test system: AKT, ERK and Pi3k in ZR71 breast cancer cells; test: Western blot analysis, ZR71; assay type: cell-based; settings: 24 h
Protocol: as §2

[10] = test system: K562 cells; test: Nude mice implanted with K562 cells: spleenic enlargement, Crk expression, leukemia growth index; assay type: in vivo
Source text: Mice were sacrificed after a decrease in percent leukemia growth index (LGI) was observed and spleen harvested.
Control mice also developed random subcutaneous tumors showing Crk expression, indicative of the presence of K562 cells.

[11] = test system: Baf3 murine leukemia cells E255K; test: Blast cell count in nude mice implanted with Baf3 E255K cells; assay type: in vivo; settings: Baf3E255K (printed E225K); Imatinib 10 mg/kg, AN019 20 mg/kg, AN024 20 mg/kg, oral gavage or ip from day 15; day 42
Source text: as §3, §4, §5, §6

[12] = test system: AKT, ERK and Pi3k in U87 glioma cells; test: Western blot analysis, U87; assay type: cell-based; settings: 24 h
Protocol: as §2

[13] = test system: pAKT and pERK in glioma and breast cancer cells; test: Western blot analysis of pAKT and pERK, cell line not stated; assay type: cell-based; settings: both with and without radiation
Protocol: as §2

[14] = test system: K562 luciferase expressing cells; test: Leukemic survival study; assay type: in vivo, nude mice
Source text: K562 luciferase expressing cells were implanted intraperitoneally into nude mice; the mice were scanned using the xenogeny IVIS image station after ip injections of luciferin does determine implantations. Drug treatment was started as in previous studies day 15 after implantation. The animals were given treatment till day 42, after which drug treatment was stopped and survival of the animals determined as per the animal care regulations. […] Drug treatment was withdrawn on day 42 post implantation and survival of animals determined.

[15] = test system: 5310 glioma cells; test: In vitro angiogenic assay, 5310 conditioned media on human dermal endothelial cells; assay type: cell-based; settings: 5310 cells
Protocol: as §1

Compound: Cc1ccc(NC(=O)c2cccc(S(=O)(=O)C(F)(F)F)c2)cc1Nc1nccc(-c2cccnc2)n1 [AN024, (3-trifluoromethylsulfonyl)-N-[4-methyl-3-(4-pyridin-3yl-pyrimidin-2ylamino)-phenyl]-benzamide]
- intracranial tumours (size, appearance) ([1]; with radiation (5 Gy/week)): well defined surgically respectable tumours
- intracranial tumours (size, appearance) ([1]; without radiation): well defined and not showing diffuse edges
- inhibition of angiogenesis [2]: only a slight inhibition
- inhibition of angiogenesis [3]: increase in inhibition after radiation
- AKT levels ([4]; 4910, after radiation): decrease in AKT levels was enhanced after radiation
- AKT levels ([4]; 4910, without radiation): decrease in AKT levels
- MTD [5]: 500 mg/kg
- LD50 ([5]; po): 1440 mg/kg
- luciferase expression ([6]; 1 mg/kg): did not induce a decrease in luciferase expression
- luciferase expression ([6]; 5 mg/kg): caused a decrease in luciferase expression
- luciferase expression ([6]; 10 mg/kg): caused a decrease in luciferase expression
- luciferase expression ([6]; 20 mg/kg): caused a decrease in luciferase expression
- BCR-Abl, Crk and phospho Stat5AY^694/699 protein levels ([7]; K562 cells, 1, 2.5, 5 or 10 μg/ml, 12 h, western blot): decreased in a dose dependent manner
- BCR-Abl kinase activity ([7]; K562 cells, 1-10 μg/ml): inhibited BCR-Abl kinase activity in a dose dependent manner
- blast cell count in blood smears [8]: significant decrease in blast cell count
- AKT levels ([9]; ZR71, after radiation): decrease in AKT expression
- PI3k levels ([9]; ZR71, with radiation): decrease in PI3k levels
- AKT levels ([9]; ZR71, without radiation): did not show any significant change
- leukemia growth index (LGI) ([10]; K562 implanted nude mice): caused the regression of LGI
- Crk expression in paraffin sections of spleen ([10]; immuno-probed spleen sections): only basal level expression of Crk expression comparable to negative control
- Spleenic enlargement ([10]; ip injections, visual inspection of harvested spleen): did not show any spleenic enlargement
- physiological, phenotypic or behavioral abnormality ([10]; treated K562 implanted nude mice): no abnormal physiological, phenotypic or behavioral abnormality
- blast cell count in blood smears [11]: significant decrease in blast cell count
- ERK levels ([12]; U87, after radiation): decrease was enhanced after radiation
- ERK levels ([12]; U87, without radiation): slight decrease in ERK levels
- pERK levels [13]: reduction on pERK levels but to a lesser extent than AN019
- blast cell count from blood smears after withdrawal of drug treatment ([14]; drug treatment withdrawn on day 42 (FIG. 6C)): showed effectiveness after withdrawal of drug treatment
- animals showing no signs of leukemia / complete absence of leukemic symptoms ([14]; of 10 animals, treatment day 15 to day 42, then withdrawn, AN024 read on day 55): 8 animals
- mortality (day post implantation) ([14]; treatment day 15 to day 42, then withdrawn): 38 days
- inhibition of angiogenesis ([15]; after radiation treatment): angiogenesis further inhibited
- inhibition of angiogenesis ([15]; control conditions (without radiation)): inhibition of angiogenesis was seen
